According to patent US20020052295A1, “Diacyl derivatives of propylene diamine having herbicidal activity” (priority 1999, published 2002):

Key:
Settings in all cases: lowest tested rate giving 80% or greater inhibition, approx. 14 days after planting and treating, greenhouse
SORVU = assay: Pre-emergence herbicidal activity on SORVU (shattercane); type: in vivo, Sorghum vulgare
Description: All such uses, and the biological activity enabling such uses, are embraced by the term “herbicidal” herein. Tables 15 and 16 summarize results of tests conducted as described below to determine the pre-emergence herbicidal activity, in the form of a GR80 value, of illustrative compounds of this invention. […] Where herbicidal activity was evident but 80% inhibition was not achieved at the highest rate tested (typically 1000 g/ha), an asterisk (*) is shown in the following tables. Herbicidal activity evident in the form of symptoms of phytotoxicity, in the absence of at least 80% inhibition at any rate, is indicated in the tables by “phyto”. A blank cell in the following tables indicates no herbicidal or phytotoxic response at any rate tested.
The pre-emergence tests were conducted by the following procedure. Topsoil was sieved to pass through a 1.27 cm screen. Fertilizer was added to the topsoil and the mixture was then sterilized by heating. The topsoil mixture was placed in a pot and compacted to a depth of 1.0 to 1.25 cm from the top of the pot. Seeds of each of several monocotyledonous and dicotyledonous annual plant species were placed on top of the soil. Additional soil was subsequently placed over the seeds to level-fill the pot. A known amount of each test compound dissolved or suspended in an appropriate organic solvent was diluted with a 50:50 mix of acetone and water and applied to the surface of the soil. After treatment the plants were placed in a greenhouse with a 30/21° C. day/night temperature regime where they received 0.64 cm of overhead irrigation. All subsequent watering consisted of a light overhead mist and/or subirrigation as needed for germination and growth.
Approximately 14 days after planting and treating, the plants were observed and herbicidal efficacy recorded as percent inhibition by comparison with untreated plants.
The plant species usually regarded as weeds which were utilized in the tests are identified in the tables below according to the following legend, in which “d” indicates a dicotyledonous species and “m” a monocotyledonous species. All monocotyledonous species included in the tests herein are grasses.

ECHCG = assay: Pre-emergence herbicidal activity on ECHCG (barnyardgrass); type: in vivo, Echinochloa crus-galli
Method in brief: (§1)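 GR80 values come from percent inhibition relative to untreated plants, rated roughly 14 days after planting and treating, with rates up to typically 1000 g/ha. Compound was sprayed onto the soil over freshly covered seeds as a dilution in 50:50 acetone/water; pots kept in greenhouse at 30/21° C. day/night after 0.64 cm overhead watering.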

PANMI = assay: Pre-emergence herbicidal activity on PANMI (wild proso millet); type: in vivo, Panicum miliaceum
Method in brief: as §1

ABUTH = assay: Pre-emergence herbicidal activity on ABUTH (velvetleaf); type: in vivo, Abutilon theophrasti
Method in brief: as §1

AMARE = assay: Pre-emergence herbicidal activity on AMARE (redroot pigweed); type: in vivo, Amaranthus retroflexus
Method in brief: as §1

DATST = assay: Pre-emergence herbicidal activity on DATST (jimsonweed); type: in vivo, Datura stramonium
Method in brief: as §1

SORHA = assay: Pre-emergence herbicidal activity on SORHA (johnsongrass, seedling); type: in vivo, Sorghum halepense
Method in brief: as §1

CHEAL = assay: Pre-emergence herbicidal activity on CHEAL (common lambsquarters); type: in vivo, Chenopodium album
Method in brief: as §1

SOLNI = assay: Pre-emergence herbicidal activity on SOLNI (black nightshade); type: in vivo, Solanum nigrum
Method in brief: as §1

POROL = assay: Pre-emergence herbicidal activity on POROL (common purslane); type: in vivo, Portulaca oleracea
Method in brief: as §1

DIGSA = assay: Pre-emergence herbicidal activity on DIGSA (large crabgrass); type: in vivo, Digitaria sanguinalis
Method in brief: as §1

CIRAR = assay: Pre-emergence herbicidal activity on CIRAR (canada thistle, seedling); type: in vivo, Cirsium arvense
Method in brief: as §1

CONAR = assay: Pre-emergence herbicidal activity on CONAR (field bindweed); type: in vivo, Convolvulus arvensis
Method in brief: as §1

BRAPP = assay: Pre-emergence herbicidal activity on BRAPP (broadleaf signalgrass); type: in vivo, Brachiaria platyphylla
Method in brief: as §1

SETFA = assay: Pre-emergence herbicidal activity on SETFA (giant foxtail); type: in vivo, Setaria faberi
Method in brief: as §1

PANDI = assay: Pre-emergence herbicidal activity on PANDI (fall panicum); type: in vivo, Panicum dichotomiflorum
Method in brief: as §1

Row | Compound | Pre-emergence activity (GR80) on SORVU (SORVU) | Pre-emergence activity (GR80) on ECHCG (ECHCG) | Pre-emergence activity (GR80) on PANMI (PANMI) | Pre-emergence activity (GR80) on ABUTH (ABUTH) | Pre-emergence activity (GR80) on AMARE (AMARE) | Pre-emergence activity (GR80) on DATST (DATST) | Pre-emergence activity (GR80) on SORHA (SORHA) | Pre-emergence activity (GR80) on CHEAL (CHEAL) | Pre-emergence activity (GR80) on SOLNI (SOLNI) | Pre-emergence activity (GR80) on PORAL (POROL) | Pre-emergence activity (GR80) on DIGSA (DIGSA) | Pre-emergence activity (GR80) on CIRAR (CIRAR) | Pre-emergence activity (GR80) on CONAR (CONAR) | Pre-emergence activity (GR80) on BRAPP (BRAPP) | Pre-emergence activity (GR80) on SETFA (SETFA) | Pre-emergence activity (GR80) on PANDI (PANDI)
1 | Cc1c(F)cccc1C(=O)NC(C)CNC(=O)c1cccc(C(F)(F)F)c1 (stereo not shown) [Example 38] | * (Where herbicidal activity was evident but 80% inhibition was not achieved at the highest rate tested (typically 1000 g/ha), an asterisk (*) is shown) | 1000 g/ha | 250 g/ha | 125 g/ha | 32 g/ha | 125 g/ha | 500 g/ha | 64 g/ha | 250 g/ha | 32 g/ha | 125 g/ha | 125 g/ha | 250 g/ha | 250 g/ha | 250 g/ha | 250 g/ha
2 | CC(CNC(=O)c1cccc(C(F)(F)F)c1)NC(=O)c1ccccc1Cl (stereo not shown) [Example 103] | phyto | phyto | 1000 g/ha | 750 g/ha | 125 g/ha | 500 g/ha | 500 g/ha | 500 g/ha | 250 g/ha | 125 g/ha | 500 g/ha | 750 g/ha | * (Where herbicidal activity was evident but 80% inhibition was not achieved at the highest rate tested (typically 1000 g/ha), an asterisk (*) is shown) | 750 g/ha | 500 g/ha | 500 g/ha
3 | CC(CNC(=O)c1cccc(C(F)(F)F)c1)NC(=O)c1cccc(Cl)c1F (stereo not shown) [Example 49] | * (Where herbicidal activity was evident but 80% inhibition was not achieved at the highest rate tested (typically 1000 g/ha), an asterisk (*) is shown) | 500 g/ha | 125 g/ha | 64 g/ha | 64 g/ha | 64 g/ha | 250 g/ha | 64 g/ha | 125 g/ha | 64 g/ha | 64 g/ha | 64 g/ha | 750 g/ha | 500 g/ha | 125 g/ha | 64 g/ha
4 | Cc1c(Cl)cccc1C(=O)NC(C)CNC(=O)c1cccc(C(F)(F)F)c1 (stereo not shown) [Example 51] | phyto | * (Where herbicidal activity was evident but 80% inhibition was not achieved at the highest rate tested (typically 1000 g/ha), an asterisk (*) is shown) | 250 g/ha | 250 g/ha | 125 g/ha | 250 g/ha | 1000 g/ha | 64 g/ha | 125 g/ha | 64 g/ha | 64 g/ha | 125 g/ha | 1000 g/ha | 500 g/ha | 250 g/ha | 250 g/ha
5 | Cc1c(Cl)cccc1C(=O)NC(C)CNC(=O)c1cccc(C(F)(F)F)c1F (stereo not shown) [Example 150] | phyto | * (Where herbicidal activity was evident but 80% inhibition was not achieved at the highest rate tested (typically 1000 g/ha), an asterisk (*) is shown) | 64 g/ha | 1000 g/ha | 32 g/ha | 32 g/ha | * (Where herbicidal activity was evident but 80% inhibition was not achieved at the highest rate tested (typically 1000 g/ha), an asterisk (*) is shown) | 32 g/ha | 64 g/ha | 32 g/ha | 32 g/ha | 125 g/ha | 125 g/ha | * (Where herbicidal activity was evident but 80% inhibition was not achieved at the highest rate tested (typically 1000 g/ha), an asterisk (*) is shown) | 125 g/ha | 125 g/ha
6 | Cc1ccc(Cl)cc1C(=O)NC(C)CNC(=O)c1cccc(C(F)(F)F)c1 (stereo not shown) [Example 47] | phyto | phyto | 250 g/ha | 250 g/ha | 64 g/ha | 250 g/ha | 750 g/ha | 64 g/ha | 125 g/ha | 125 g/ha | 125 g/ha | 125 g/ha | 750 g/ha | 500 g/ha | 250 g/ha | 250 g/ha
7 | CC(CNC(=O)c1cccc(C(F)(F)F)c1)NC(=O)c1cccc(Cl)c1Cl (stereo not shown) [Example 50] | * (Where herbicidal activity was evident but 80% inhibition was not achieved at the highest rate tested (typically 1000 g/ha), an asterisk (*) is shown) | * (Where herbicidal activity was evident but 80% inhibition was not achieved at the highest rate tested (typically 1000 g/ha), an asterisk (*) is shown) | 1000 g/ha | 750 g/ha | 32 g/ha | 125 g/ha | 1000 g/ha | 32 g/ha | 125 g/ha | 32 g/ha | 125 g/ha | 64 g/ha | 250 g/ha | 500 g/ha | 750 g/ha | 250 g/ha
